Source: patent publication US8513271B2, “Pyrimidine compounds as delta opioid receptor modulators” (Janssen Pharmaceutica, NV, priority 2009, dated 2013)
pEC50: −log10 of the molar value. Like-named read-outs stand apart in the source and are kept apart here.

Molecular target: T1, delta opioid receptor (Mus musculus, UniProt P32300)
T1 construct: NG108-15 cell membranes were purchased from Applied Cell Sciences (Rockville, Md.); host or cells: NG108-15 cell membranes
Assay: [35S]GTPγS binding assay in NG108-15 cell membranes (delta opioid functional assay), 200 nM screen
Assay type: biochemical
Conditions: NG108-15 cell membranes; for GTPγS δ-RelEfficacy @200 nM: 200 nM test compound, relative to calculated max of SNC80 dose response curve; for GTPγS δ-RelEfficacy @200 nM / pEC50 / EC50: averages if tested more than once; for pEC50: read-out: GTPγS δ-opioid receptor EC50; for GTPγS δ-opioid receptor Rel Efficacy: relative efficacy from dose response; for EC50: GTPγS δ-opioid receptor EC50 (μM)

T1 sequence (P32300 whole entry): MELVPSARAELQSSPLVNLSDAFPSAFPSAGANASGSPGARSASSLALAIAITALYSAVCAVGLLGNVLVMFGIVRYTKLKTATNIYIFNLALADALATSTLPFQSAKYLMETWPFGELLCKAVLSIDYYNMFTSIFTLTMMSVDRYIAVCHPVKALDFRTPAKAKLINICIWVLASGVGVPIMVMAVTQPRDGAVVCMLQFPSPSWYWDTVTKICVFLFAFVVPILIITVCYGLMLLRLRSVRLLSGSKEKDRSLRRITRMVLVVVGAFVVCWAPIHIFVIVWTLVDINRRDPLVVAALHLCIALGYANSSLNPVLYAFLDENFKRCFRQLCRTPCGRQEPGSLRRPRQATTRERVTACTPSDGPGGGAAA

Row | Compound | GTPγS δ-RelEfficacy @200 nM | pEC50 | GTPγS δ-opioid receptor Rel Efficacy | EC50
1 | FCc1ccc(Oc2nc(-c3cccnc3)ncc2NC[C@@H]2CCCN2)cc1 [Cpd 217, [4-(4-Fluoromethyl-phenoxy)-2-pyridin-3-yl-pyrimidin-5-yl]-pyrrolidin-2-(S)-ylmethyl-amine] | 0.480 | 6.21 | 0.882 | 
2 | Cc1cc(Oc2nc(-c3cncc(C#N)c3)ncc2NC[C@@H]2CCCN2)ccc1F [Cpd 218] | 0.642 | 6.45 | 0.960 | 
3 | Cc1cc(Oc2nc(-c3cncc(F)c3)ncc2NC[C@@H]2CCCN2)ccc1F [Cpd 219] | 0.475 | < 6.00 |  | 
4 | N#Cc1cncc(-c2ncc(NC[C@@H]3CCCN3)c(Oc3ccc(C(F)(F)F)cc3)n2)c1 [Cpd 220] | 0.457 | 6.34 | 0.890 | 
5 | Fc1cncc(-c2ncc(NC[C@@H]3CCCN3)c(Oc3ccc(C(F)(F)F)cc3)n2)c1 [Cpd 221] | 0.324 |  |  | 
6 | CS(=O)(=O)c1ccc(Oc2nc(-c3cncc(F)c3)ncc2NC[C@@H]2CCCN2)cc1 [Cpd 222] | 0.284 |  |  | 
7 | O=CNc1ccc(Oc2nc(-c3cncc(F)c3)ncc2NC[C@@H]2CCCN2)cc1 [Cpd 223] | 0.802 | 6.82 | 0.986 | 
8 | COc1ccc(Oc2nc(-c3cccnc3)ncc2N[C@@H]2CCNC2)cc1 [Cpd 224] | 0.460 | 6.67 | 1.104 | 
9 | COc1ccc(Oc2nc(-c3cccnc3)ncc2NC[C@@H]2CCCCN2)cc1 [Cpd 225] | 0.260 | 6.32 | 0.718 | 
10 | COc1ccc(Oc2nc(-c3cccnc3)ncc2NC2CNC2)cc1 [Cpd 226] | 0.320 |  |  | 
11 | Cc1ccccc1Oc1nc(-c2cncc(Cl)c2)ncc1NC[C@@H]1CCCN1 [Cpd 227] | 0.480 | 6.61 | 1.093 | 
12 | CC(=O)Oc1cccc(Oc2nc(-c3cncc(C#N)c3)ncc2NC[C@@H]2CCCN2)c1 [Cpd 228] | 1.039 |  | 1.082 | 0.006 µM
13 | Clc1cncc(-c2ncc(NC[C@@H]3CCCN3)c(Oc3ccccc3Cl)n2)c1 [Cpd 229] | 0.715 |  | 0.890 | 0.061 µM
14 | N#Cc1cncc(-c2ncc(NC[C@@H]3CCCN3)c(Oc3ccccc3Cl)n2)c1 [Cpd 230] | 0.847 |  |  | 
15 | N#Cc1cncc(-c2ncc(NC[C@@H]3CCCN3)c(Oc3cccc(O)c3)n2)c1 [Cpd 231] | 1.159 |  | 1.113 | 0.005 µM
16 | COc1cncc(-c2ncc(NC[C@@H]3CCCN3)c(Oc3ccccc3Cl)n2)c1 [Cpd 232] | 0.679 | 6.84 | 1.021 | 
17 | CSc1cncc(-c2ncc(NC[C@@H]3CCCN3)c(Oc3ccccc3Cl)n2)c1 [Cpd 233] | 0.549 |  |  | 
18 | COCCOc1ccc(Oc2nc(-c3cncc(SC)c3)ncc2NC[C@@H]2CCCN2)cc1 [Cpd 241] | 0.381 |  |  | 
19 | COCCOc1ccc(Oc2nc(-c3cncc(C)c3)ncc2NC[C@@H]2CCCN2)cc1 [Cpd 242] | 0.413 |  |  | 
20 | COCCOc1ccc(Oc2nc(-c3cncc(OC)c3)ncc2NC[C@@H]2CCCN2)cc1 [Cpd 243] | 0.433 |  |  | 
21 | COCCOc1ccc(Oc2nc(-c3cccnc3)ncc2NC[C@@H]2CCCN2)cc1 [Cpd 244] | 0.354 |  |  | 
22 | COc1ccc(Oc2nc(-c3cncc(OC)c3)ncc2N[C@@H]2CCCNC2)cc1 [Cpd 246] |  |  | 1.043 | 0.078 µM
23 | CSc1cncc(-c2ncc(NC[C@@H]3CCCN3)c(Oc3cccc(OC(C)=O)c3)n2)c1 [Cpd 248] | 0.754 |  | 1.084 | 0.047 µM
24 | COc1cncc(-c2ncc(NC[C@@H]3CCCN3)c(Oc3cccc(O)c3)n2)c1 [Cpd 249] | 1.000 |  | 0.940 | 0.011 µM
25 | COc1cncc(-c2ncc(NC[C@@H]3CCCN3)c(Oc3cccc(OC(C)=O)c3)n2)c1 [Cpd 250, Acetic acid 3-{2-(5-methoxy-pyridin-3-yl)-5-[(pyrrolidin-2-(S)-ylmethyl)-amino]-pyrimidin-4-yloxy}-phenyl ester] | 0.912 |  | 1.022 | 0.026 µM
26 | CC(=O)Oc1cccc(Oc2nc(-c3cncc(C)c3)ncc2NC[C@@H]2CCCN2)c1 [Cpd 251] | 0.955 |  | 1.145 | 0.015 µM
27 | COc1ccc(Oc2nc(-c3cncc(SC)c3)ncc2N[C@@H]2CCCNC2)cc1 [Cpd 254] |  |  | 0.928 | 0.151 µM

Row | Compound | GTPγS δ-RelEfficacy @200 nM | pEC50 | GTPγS δ-opioid receptor Rel Efficacy | EC50
28 | COc1ccc(Oc2nc(-c3cncc(C)c3)ncc2N[C@H]2CCNC2)cc1 [Cpd 257] |  |  | 0.830 | 0.095 µM
29 | COc1ccc(Oc2nc(-c3cncc(C)c3)ncc2N[C@@H]2CCCNC2)cc1 [Cpd 258] |  |  | 0.835 | 0.075 µM
30 | COc1ccc(Oc2nc(-c3cncc(C)c3)ncc2N[C@H]2CCCNC2)cc1 [Cpd 259] |  |  | 1.030 | 0.0749 µM
31 | Cc1cncc(-c2ncc(NC[C@@H]3CCCN3)c(Oc3ccc(OCF)cc3)n2)c1 [Cpd 260] |  | 6.52 | 0.937 | 
32 | COc1ccc(Oc2nc(-c3cccnc3)ncc2N[C@@H]2CCCNC2)cc1 [Cpd 261] |  |  | 0.979 | 0.241 µM
33 | COc1ccc(Oc2nc(-c3cnc(F)c(C)c3)ncc2NC[C@@H]2CCCN2)cc1 [Cpd 262] |  | 7.43 | 0.957 | 
34 | COc1ccc(Oc2nc(-c3cc(C)cnc3C)ncc2NC[C@@H]2CCCN2)cc1 [Cpd 263] |  |  | 0.869 | 0.027 µM
35 | COc1ccc(Oc2nc(-c3cnc(-c4cnc(Cl)c(C)c4)c(C)c3)ncc2NC[C@@H]2CCCN2)cc1 [Cpd 264] |  | 6.92 | 1.036 | 
36 | COc1ccc(Oc2nc(-c3cnc(Cl)cc3C)ncc2NC[C@@H]2CCCN2)cc1 [Cpd 265] |  |  | 1.024 | 0.053 µM
37 | COc1ccc(Oc2nc(-c3cnc(Cl)c(C)c3)ncc2NC[C@@H]2CCCN2)cc1 [Cpd 266] |  |  | 1.041 | 0.018 µM
38 | COc1ccc(Oc2nc(-c3cccnc3)ncc2NC[C@H]2CCCCN2)cc1 [Cpd 267] |  | 6.92 | 0.920 | 
39 | COc1ccc(Oc2nc(-c3cc(C)cnc3Cl)ncc2NC[C@@H]2CCCN2)cc1 [Cpd 268] |  |  | 1.023 | 0.081 µM
40 | COc1ccc(Oc2nc(-c3cncc(CO)c3)ncc2NC[C@@H]2CCCN2)cc1 [Cpd 269, (5-{4-(4-Methoxy-phenoxy)-5-[(pyrrolidin-2-(S)-ylmethyl)-amino]-pyrimidin-2-yl}-pyridin-3-yl)-methanol] |  |  | 0.984 | 0.053 µM
41 | COc1ccc(Oc2nc(-c3cccnc3)ncc2NC[C@@H]2C[C@@H](O)CN2)cc1 [Cpd 270, 5-(S)-{[4-(4-Methoxy-phenoxy)-2-(pyridin-3-yl)-pyrimidin-5-ylamino]-methyl}-pyrrolidin-3-(R)-ol] |  | 6.71 | 0.820 | 
42 | COc1ccc(Oc2nc(-c3cccnc3)ncc2NC[C@@H]2C[C@H](O)CN2)cc1 [Cpd 272] |  | < 6.00 |  | 
43 | COc1ccc(Oc2nc(-c3cncc(OC)c3)ncc2NC[C@@H]2C[C@@H](O)CN2)cc1 [Cpd 273, 5-(S)-{[4-(4-Methoxy-phenoxy)-2-(5-methoxy-pyridin-3-yl)-pyrimidin-5-ylamino]-methyl}-pyrrolidin-3-(R)-ol] |  |  | 1.001 | 0.026 µM
44 | COc1ccc(Oc2nc(-c3cncc(OC)c3)ncc2NC[C@H]2C[C@@H](O)CN2)cc1 [Cpd 274, 5-(R)-{[4-(4-Methoxy-phenoxy)-2-(5-methoxy-pyridin-3-yl)-pyrimidin-5-ylamino]-methyl}-pyrrolidin-3-(R)-ol] |  |  | 0.863 | 0.286 µM
45 | COc1ccc(Oc2nc(-c3cncc(C#N)c3)ncc2NCc2ncc[nH]2)cc1 [Cpd 284] | 0.600 |  | 0.609 | 0.055 µM
46 | COc1ccc(Oc2nc(-c3cncc(C#N)c3)ncc2NCc2[nH]cnc2C)cc1 [Cpd 285, 5-{4-(4-Methoxy-phenoxy)-5-[(5-methyl-3H-imidazol-4-ylmethyl)-amino]-pyrimidin-2-yl}-nicotinonitrile] | 0.730 |  | 0.782 | 0.027 µM
47 | COc1ccc(Oc2nc(-c3cncc(C#N)c3)ncc2NCc2cncn2C)cc1 [Cpd 286] | 0.1 |  |  | 
48 | CCc1nc(C)c(CNc2cnc(-c3cncc(C#N)c3)nc2Oc2ccc(OC)cc2)[nH]1 [Cpd 287] | 0.640 |  |  | 
49 | COc1ccc(Oc2nc(-c3cccnc3)ncc2NCc2cnc[nH]2)cc1 [Cpd 288] | 0.428 |  |  | 
50 | COc1ccc(Oc2nc(-c3cncc(SC)c3)ncc2NCc2cnc[nH]2)cc1 [Cpd 289] | 0.402 |  |  | 
51 | COc1ccc(Oc2nc(-c3cncc(OC)c3)ncc2NCc2cnc[nH]2)cc1 [Cpd 290] | 0.398 |  |  | 
52 | COc1ccc(Oc2nc(-c3cncc(C)c3)ncc2NCc2cnc[nH]2)cc1 [Cpd 291] | 0.303 |  |  | 
53 | COc1ccc(Oc2nc(-c3cncc(C)c3)ncc2NCCN)cc1 [Cpd 296] |  | 6.37 | 0.938 | 
54 | CNCCNc1cnc(-c2cccnc2)nc1Oc1ccc(OC)cc1 [Cpd 297] |  | 6.37 | 0.820 | 
